# According to patent US7892756B2, “Human salty taste receptor and methods of modulating salty taste perception” (Monell Chemical Senses Center, priority 2006, dated 2011):
# “Also recorded” adds a separate entry of the source. Read-outs that look alike come from different tables or passages of the source.
# Columns and labels:
# [1] = system: salty taste response in humans; settings: in vivo, cited from earlier work
# [2] = system: catfish putative taste receptor for L-arginine; assay: Single channel recording of purified receptor reconstituted in planar lipid bilayers (FIG. 9); assay type: biochemical; settings: transmembrane potential −100 mV
# From the text: Proteoliposomes containing purified receptor protein from catfish taste epithelium are fused to planar lipid bilayers. Control records (trace shown in part A) were obtained after addition of proteolipisomes to the membrane bathing solution before addition of L-Arg. […] Transmembrane potential was −100 mV. Traces shown in all panels are continuous records of that specific condition.
# This example, in part, describes the extraction, purification, and membrane-reconstitution of a taste receptor for L-arginine (L-arg) from catfish. The methods, which are published and described in Grosvenor, W et al. (2004) BMC Neuroscience 5:25, can be readily adapted for reconstitution of ENaC, ENaC subunits, and salty taste receptors in lipid membranes as described below. The catfish has served as a model for taste receptor studies because the receptors are very sensitive to certain amino acids. One such amino acid is L-arg. Like the ENaC, the taste receptor for L-arg in catfish is an ion channel. Parallel approaches are utilized in solubilizing the L-arg and ENaC-type receptors. The receptors differ primarily by origin—the L-arg receptor is purified from catfish taste tissue and the ENaC subunits are synthesized by a heterologous cell culture expression system. […]
# [3] = system: L-ArgR (native taste receptor for L-arginine); assay: Taste nerve recordings from the animal, L-ArgR in its native state; assay type: in vivo, catfish
# From the text: The properties of the L-ArgR as measured in the bilayer are very similar to those observed through taste nerve recordings from the animal, when the L-ArgR is in its native state.
# [4] = target: T1, ENaC composed of human delta, beta, gamma (Homo sapiens, UniProt P51172, C696Y); assay: Amiloride inhibition of ENaC of different composition (FIG. 4); assay type: biochemical; settings: gamma ENaC compared with human alpha
# T1 sequence (P51172 1-638 isoform P51172-1 C532Y): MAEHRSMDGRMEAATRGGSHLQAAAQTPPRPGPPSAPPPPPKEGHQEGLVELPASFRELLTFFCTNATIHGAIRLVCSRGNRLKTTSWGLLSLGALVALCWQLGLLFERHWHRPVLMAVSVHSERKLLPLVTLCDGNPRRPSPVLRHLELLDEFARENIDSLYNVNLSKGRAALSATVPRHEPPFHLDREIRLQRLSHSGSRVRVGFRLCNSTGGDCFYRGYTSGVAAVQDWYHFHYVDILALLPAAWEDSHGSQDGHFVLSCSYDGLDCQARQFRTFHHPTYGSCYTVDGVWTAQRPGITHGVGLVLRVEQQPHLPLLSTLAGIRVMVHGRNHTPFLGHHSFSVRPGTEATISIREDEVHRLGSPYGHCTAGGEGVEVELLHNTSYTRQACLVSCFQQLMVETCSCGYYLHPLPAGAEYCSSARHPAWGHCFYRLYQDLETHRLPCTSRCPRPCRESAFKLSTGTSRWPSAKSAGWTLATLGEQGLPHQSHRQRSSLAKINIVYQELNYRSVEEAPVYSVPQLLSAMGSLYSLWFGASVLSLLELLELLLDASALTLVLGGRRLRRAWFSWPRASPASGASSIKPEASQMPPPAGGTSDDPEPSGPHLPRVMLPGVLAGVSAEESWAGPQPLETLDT
# T1 sequence (P51168 1-640 partner): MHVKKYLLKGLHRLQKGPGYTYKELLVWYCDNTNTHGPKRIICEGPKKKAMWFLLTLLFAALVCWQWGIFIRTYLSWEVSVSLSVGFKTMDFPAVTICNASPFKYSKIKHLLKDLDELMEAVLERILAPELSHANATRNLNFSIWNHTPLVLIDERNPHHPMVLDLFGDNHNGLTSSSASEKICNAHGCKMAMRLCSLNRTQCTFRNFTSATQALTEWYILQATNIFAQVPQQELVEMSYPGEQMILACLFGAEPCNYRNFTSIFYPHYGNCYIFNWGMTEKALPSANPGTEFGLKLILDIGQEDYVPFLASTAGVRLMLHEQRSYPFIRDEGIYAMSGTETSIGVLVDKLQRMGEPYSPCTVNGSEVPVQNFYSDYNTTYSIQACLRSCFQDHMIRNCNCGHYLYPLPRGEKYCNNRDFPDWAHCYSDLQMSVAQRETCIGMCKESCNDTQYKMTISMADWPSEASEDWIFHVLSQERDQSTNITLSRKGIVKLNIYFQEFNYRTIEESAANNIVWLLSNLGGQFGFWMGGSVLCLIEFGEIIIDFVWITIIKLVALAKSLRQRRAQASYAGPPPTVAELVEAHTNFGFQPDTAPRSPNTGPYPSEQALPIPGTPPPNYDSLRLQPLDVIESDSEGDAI
# T1 sequence (P51170 1-649 partner): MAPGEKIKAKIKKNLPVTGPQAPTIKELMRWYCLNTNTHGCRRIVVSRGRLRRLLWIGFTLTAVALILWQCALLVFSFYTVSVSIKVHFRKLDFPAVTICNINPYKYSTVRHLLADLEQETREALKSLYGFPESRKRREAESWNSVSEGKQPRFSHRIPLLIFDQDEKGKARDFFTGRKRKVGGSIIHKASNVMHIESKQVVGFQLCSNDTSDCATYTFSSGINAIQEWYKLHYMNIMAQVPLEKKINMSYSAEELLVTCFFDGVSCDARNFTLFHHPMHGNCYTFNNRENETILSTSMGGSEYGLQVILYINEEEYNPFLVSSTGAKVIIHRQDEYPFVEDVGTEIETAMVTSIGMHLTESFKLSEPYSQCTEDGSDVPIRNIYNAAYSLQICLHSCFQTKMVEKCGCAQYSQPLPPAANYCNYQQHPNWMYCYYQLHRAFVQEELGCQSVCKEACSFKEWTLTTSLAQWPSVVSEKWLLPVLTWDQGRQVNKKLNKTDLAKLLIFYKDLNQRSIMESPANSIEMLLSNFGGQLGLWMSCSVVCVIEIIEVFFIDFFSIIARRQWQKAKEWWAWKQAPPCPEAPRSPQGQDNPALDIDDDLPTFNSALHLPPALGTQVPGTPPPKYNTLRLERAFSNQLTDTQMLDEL
# ENaC delta (δ) subunit = target: T2, ENaC delta (δ) subunit (Homo sapiens, UniProt P51172); settings: delta versus alpha subunit; cited from earlier work
# T2 sequence (P51172 1-802): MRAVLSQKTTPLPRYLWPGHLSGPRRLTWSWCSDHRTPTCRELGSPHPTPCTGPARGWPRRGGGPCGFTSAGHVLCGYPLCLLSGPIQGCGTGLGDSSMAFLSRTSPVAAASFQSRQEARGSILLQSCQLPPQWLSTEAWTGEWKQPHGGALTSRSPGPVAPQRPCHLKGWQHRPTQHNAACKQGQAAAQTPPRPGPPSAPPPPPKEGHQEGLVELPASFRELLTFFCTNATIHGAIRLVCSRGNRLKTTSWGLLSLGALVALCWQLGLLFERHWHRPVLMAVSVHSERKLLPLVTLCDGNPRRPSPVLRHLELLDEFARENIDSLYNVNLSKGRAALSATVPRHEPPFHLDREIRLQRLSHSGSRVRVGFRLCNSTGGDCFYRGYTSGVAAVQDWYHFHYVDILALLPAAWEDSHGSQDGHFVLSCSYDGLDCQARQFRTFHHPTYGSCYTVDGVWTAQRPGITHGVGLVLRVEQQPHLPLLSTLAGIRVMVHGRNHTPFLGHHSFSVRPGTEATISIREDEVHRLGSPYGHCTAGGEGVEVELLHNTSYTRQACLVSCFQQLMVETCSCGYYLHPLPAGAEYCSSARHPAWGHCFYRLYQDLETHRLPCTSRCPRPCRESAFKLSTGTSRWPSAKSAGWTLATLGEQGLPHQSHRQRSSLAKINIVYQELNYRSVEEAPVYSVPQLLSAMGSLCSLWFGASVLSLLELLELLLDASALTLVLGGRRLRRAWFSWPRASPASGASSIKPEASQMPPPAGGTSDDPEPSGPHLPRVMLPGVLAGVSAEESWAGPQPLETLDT
# T2 sequence (P51168 1-640 partner): T1 sequence (P51168 1-640 partner)
# T2 sequence (P51170 1-649 partner): T1 sequence (P51170 1-649 partner)
smiles,measurement,setting,value
N=C(N)N [guanidine],effect on salty taste response in humans,[1],salty taste enhancers
"[Cl-].[Na+] [NaCl, sodium chloride]",concentration at which a salty taste is imparted,[1],above 50 mM
N=C(N)NCCC[C@H](N)C(=O)O [arginine],effect on salty taste response in humans,[1],salty taste enhancers
[H]/N=C(\N/C(=N/[H])NCCCCCCNC(=N)NC(=N)Nc1ccc(Cl)cc1)Nc1ccc(Cl)cc1 [chlorhexidine],effect on salty taste response in humans,[1],inhibitor of the salty taste response in humans
"N=C(N)NCCC[C@H](N)C(=O)O [L-Arg, L-arginine]",single channel activity after addition to the cis-side,"[2]; 10 μM, cis-side of bilayer",evoked regular periodic channel activity
same,sensitivity of the native receptor,[3],in the tenths of uM
same,effect on salty taste response in humans,[1]; listed as L-arginine,equally effective
N=C(N)NCCCC[C@H](N)C(=O)O [homoarginine],effect on salty taste response in humans,[1],salty taste enhancers
N=C(N)NC(=O)c1nc(Cl)c(N)nc1N [amiloride],"amiloride sensitivity of delta-containing ENaC relative to alpha, beta, gamma ENaC",[4],less so than the alpha; also recorded: less sensitive to amiloride
same,lower affinity for amiloride of delta subunit relative to alpha subunit,ENaC delta (δ) subunit,30 fold
same,effect on salty taste response in humans,[1],inability of amiloride to inhibit sodium-induced salty taste response in humans; also recorded: not sensitive to amiloride
"N=C(N)NCCC[C@@H](N)C(=O)O [D-Arg, D-arginine]",single channel activity after addition to the cis-side following L-Arg,"[2]; 100 μM, cis-side, after 10 μM L-Arg",activity ceased
same,effect on the native receptor,[3],inhibits the receptor
same,effect on salty taste response in humans,[1],equally effective
